# Data taken from PMC4551797 (PLoS ONE, 2015).
# Assays:
# wild-type mice = assay: Three-day study on GLP-1, PYY and bile weight in wild-type littermates; conditions: 100 mg/kg oral BID 3 days, 30 min after last dose
# Procedure: C57BL/6 mice, Tgr5 KO mice, or their wild-type littermate controls were orally dosed with vehicle or compounds twice per day for 3 days, with overnight fasting performed on the evening of day 2. On the morning of day 3, animals were dosed orally with compounds and then euthanized by CO2 asphyxiation at 30 minutes after the fifth dose. Plasma was collected for analysis of GLP-1 (X-36) amide as mentioned above, followed immediately by incision into the abdominal cavity to remove and weigh bile from the gallbladder.
# DIO C57BL/6 mice = assay: Oral glucose tolerance test in diet-induced obese mice, acute or after 2-week dosing; format: in vivo, mouse; conditions: 2 g/kg glucose
# Procedure: For measurement of glucose only, overnight-fasted C57BL/6 mice in a normal light cycle were orally dosed with vehicle or compound, followed by an oral bolus of 3 g/kg glucose at 15 minutes post compound. At 0, 20, 40, 60, and 120 minutes post glucose dose, blood glucose was assessed via glucometers. Resulting raw data was used to generate AUCs. For measurement of hormones and glucose, overnight-fasted C57BL/6 mice acclimated for two weeks to a reverse light cycle were orally dosed with vehicle or compound, followed by an oral bolus of 3 g/kg glucose at 15 minutes post compound. At 0, 2, 5, 10, 20, 40, and 60 minutes post glucose dose, blood glucose was assessed via glucometers, followed immediately by collection of plasma for active GLP-1 (Mesoscale Discovery), insulin (Mesoscale Discovery), and total PYY. […] At 0, 15, 30, 60, and 120 minutes post glucose dose, blood glucose was assessed via glucometers. […]
# While compound 18 led to significant glucose lowering in an OGTT studies when dosed acutely, it remained unclear if the mechanism of TGR5-stimulated GLP-1 secretion desensitizes over time. […] For the chronic study, DIO mice were orally dosed with vehicle or 60 mg/kg compound 18 once a day for two weeks; body weights and food intake were measured during the treatment period. […]
# human TGR5 receptor = biological target: T1, human TGR5 receptor (Homo sapiens, UniProt Q8TDU6); assay: cAMP production in NCI-H716 enteroendocrine cells (endogenous TGR5); format: cell-based
# T1 construct: in cells with endogenous levels of receptor; host or cells: NCI-H716 (human enteroendocrine)
# T1 sequence (Q8TDU6 1-330): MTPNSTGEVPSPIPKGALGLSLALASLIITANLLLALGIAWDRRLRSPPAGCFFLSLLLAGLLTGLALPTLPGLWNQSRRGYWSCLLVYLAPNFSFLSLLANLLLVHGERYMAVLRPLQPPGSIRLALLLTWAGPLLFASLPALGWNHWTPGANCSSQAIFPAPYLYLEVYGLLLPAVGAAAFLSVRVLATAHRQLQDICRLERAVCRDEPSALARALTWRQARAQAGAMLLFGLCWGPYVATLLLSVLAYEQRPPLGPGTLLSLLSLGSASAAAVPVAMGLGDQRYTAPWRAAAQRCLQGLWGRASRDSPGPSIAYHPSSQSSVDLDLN
# Procedure: (§1) HEK-293 cells were obtained from ATCC and a clonal HEK-293 line overexpressing mouse TGR5 was prepared. Both were maintained in Dulbecco’s modified Eagle’s medium (DMEM) containing 10% fetal bovine serum (FBS) and penicillin /streptomycin. Mouse STC-1 cells were obtained from ATCC under agreement with the Cold Spring Harbor Laboratories and maintained in DMEM containing 10% FBS and penicillin /streptomycin. NCI-H716 cells were obtained from ATCC and were maintained in RPMI-1640 with 10% FBS. NCI-H716 cells were cultured in 96 well plate coated with Matrigel (BD). After 72 hours, cAMP production stimulated with TGR5 agonists was measured using HTRF cAMP assay kit (CISBIO). The level of cAMP in suspensions of STC-1 cells stimulated with increasing concentrations of TGR5 agonists was also determined. […] The production of GLP-1 was determined using a GLP-1 Assay (7–36) amide kit (Mesoscale Discovery) following the manufacturer’s instructions. […]
# (§2) Compound 18 is a novel small molecule agonist of TGR5 developed by Eli Lilly and Company (MW = 508.62, Fig 2A). […] In order to determine potency of compound 18 for the mouse and human TGR5 receptor in cells with endogenous levels of receptor, we measured compound 18-stimulated cAMP production and GLP-1 secretion in both mouse (STC-1) and human (NCI-H716) enteroendocrine cell lines, that we have shown to express TGR5 natively (Fig 1). […]
# HEK-293 cells = assay: cAMP production in untransfected HEK-293 cells (specificity control); format: cell-based; conditions: Homo sapiens, HEK293, read-out: cAMP production: no elevation up to
# Procedure: as §1, §2
structure (smiles),measurement,setting,value
CC(=O)N1CCC(C(C)N(C(=O)COc2cccc3sc4nc(C)cn4c23)c2ccc(F)cc2)CC1 (stereo not shown) [compound 18],GLP-1,wild-type mice,significant increase
same,PYY,wild-type mice,significant increase
same,bile weight,wild-type mice,significant increase
same,reduction in the glucose excursion (OGTT),"DIO C57BL/6 mice; acute, single 60 mg/kg oral dose",33 ± 5%
same,reduction in the glucose excursion (OGTT),"DIO C57BL/6 mice; chronic, 60 mg/kg oral once a day for two weeks",27 ± 6%
same,EC50,human TGR5 receptor,3.1 µM
same,EC50,HEK-293 cells,> 30 µM
